According to patent publication US20260102324A1, “PERFUMING COMPOSITIONS COMPRISING A 2-(ALKYLSULFONYL)OCTAN-4-ONE” (FIRMENICH SA, priority 2022, published 2026):

What was measured:
Assay type in all cases: physicochemical
[1] = Solubility measurements by light transparency (Crystalline PV instrument) on heating to 60° C. and cooling
Experimental: (§1) Solid 2-(dodecylsulfonyl)octan-4-one was mixed with different solvents and transferred to a 8 mL vial equipped with an overhead stirrer. The sample was placed in a Crystalline PV instrument (Technobis, The Netherlands). Heating and cooling steps were applied under mechanical stirring, and the samples were monitored by following transparency via a LED light beam that passes through the vial. Full (100%) transparency is attained when 2-(dodecylsulfonyl)octan-4-one is completely dissolved in the solvent. On the other hand, when the measured values of transparency are below 100% the dissolution process is still incomplete.
(§2) A first heating step was carried out by quickly (+5° C./min) heating the sample above its solubility temperature to 60° C. After complete dissolution, a cooling ramp to 1° C. was applied (−2° C./min), i.e. below the solubility temperature of the sample, where the sample was kept stirring until 2-(dodecylsulfonyl)octan-4-one has crystallized. Subsequently a second heating step was carried out by applying a shallow heating ramp (+0.1° C./min) in order to dissolve the material under quasi-isothermal conditions. The transparency of the sample was monitored as a function of time during the heating ramp. Once the signal has attained 100% transparency, the dissolution process was complete and the respective temperature was taken as the solubilization temperature (T_sol).
Following the methodology described above, 2-(dodecylsulfonyl)octan-4-one was mixed with various solvents/liquid carriers that are suitable for perfumery compositions or with perfumery raw materials at a concentration of 5 wt. % and the solubilization temperature has been determined. The solvents and perfumery raw materials used and the respective solubilization temperatures are depicted in Tables 1-3 below.

[2] = Determination of the solubilization temperature (T_sol), shallow heating ramp to 100% transparency
Experimental: as §1, §2
Following the methodology described above, 2-(dodecylsulfonyl)octan-4-one was mixed with various solvents/liquid carriers that are suitable for perfumery compositions or with perfumery raw materials at a concentration of 5 wt. % and the solubilization temperature has been determined. The solvents and perfumery raw materials used and the respective solubilization temperatures are depicted in Tables 1-3 below. […]

[3] = Solubility at 25° C. from exponential fit of temperature-solubility curves; conditions: from extrapolation of temperature-solubility curves
Experimental: The solubility of 2-(dodecylsulfonyl)octan-4-one at 25° C. in various solvents or perfumery raw materials has been determined based on the data presented in Table 9. For each solvent or perfumery raw material, the measured solubility as a function of temperature has been fitted to an exponential function. The solubility at 25° C. has been obtained by extrapolation or interpolation of this exponential function. The results/exponential curves are shown in the Figure (black triangle: DIPG, grey squares: IPM, open diamonds: Hedione®, black circles: gamma-nonalactone and Cetiol® Ultimate (80/20); the continuous lines represent exponential functions fit to the experimental data).

[4] = 5 wt. % in Dimethylglutarate (DBE-5)
[5] = 5 wt. % in Dipropylene glycol (DIPG)
[6] = 5 wt. % in Fragrance composition F1
[7] = 5 wt. % in Fragrance composition F2
[8] = 5 wt. % in Fragrance composition F3
[9] = 5 wt. % in Fragrance composition F4
[10] = 5 wt. % in Fragrance composition F5
[11] = 5 wt. % in Isopropyl myristate (IPM)
[12] = 5 wt. % in gamma-Nonalactone/Cetiol ® Ultimate (80/20; w/w)
[13] = 5 wt. % in gamma-Valerolactone/Isopropyl Myristate (IPM) (70/30 w/w)

## CCCCCCCCCCCCS(=O)(=O)C(C)CC(=O)CCCC (centres unmarked) [2-(dodecylsulfonyl)octan-4-one]
[1]; 5 wt. % in Cetiol ® Ultimate
  Soluble after cooling to 25° C.: not capable of fully dissolving and no
  Soluble at 60° C.: yes
[1]; [4]
  Soluble after cooling to 25° C.: not capable of fully dissolving and no
  Soluble at 60° C.: yes
[1]; [5]
  Soluble after cooling to 25° C.: not capable of fully dissolving and no
  Soluble at 60° C.: yes
[1]; 5 wt. % in Ethyl lactate
  Soluble after cooling to 25° C.: not capable of fully dissolving and no
  Soluble at 60° C.: yes
[1]; [6]
  Soluble after cooling to 25° C.: yes
  Soluble at 60° C.: yes
[1]; [7]
  Soluble after cooling to 25° C.: yes
  Soluble at 60° C.: yes
[1]; [8]
  Soluble after cooling to 25° C.: yes
  Soluble at 60° C.: yes
[1]; [9]
  Soluble after cooling to 25° C.: yes
  Soluble at 60° C.: yes
[1]; [10]
  Soluble after cooling to 25° C.: yes
  Soluble at 60° C.: yes
[1]; 5 wt. % in Hedione ®
  Soluble after cooling to 25° C.: yes
  Soluble at 60° C.: yes
[1]; [11]
  Soluble after cooling to 25° C.: not capable of fully dissolving and no
  Soluble at 60° C.: yes
[1]; 5 wt. % in Triacetine
  Soluble after cooling to 25° C.: not capable of fully dissolving and no
  Soluble at 60° C.: yes
[1]; 5 wt. % in Triethyl citrate
  Soluble after cooling to 25° C.: not capable of fully dissolving and no
  Soluble at 60° C.: yes
[1]; 5 wt. % in gamma-Decalactone
  Soluble after cooling to 25° C.: yes
  Soluble at 60° C.: yes
[1]; [12]
  Soluble after cooling to 25° C.: yes
  Soluble at 60° C.: yes
[1]; 5 wt. % in gamma-Undecalactone
  Soluble after cooling to 25° C.: yes
  Soluble at 60° C.: yes
[1]; 5 wt. % in gamma-Valerolactone
  Soluble after cooling to 25° C.: yes
  Soluble at 60° C.: yes
[1]; [13]
  Soluble after cooling to 25° C.: yes
  Soluble at 60° C.: yes
[2]; 5 wt. % in Cetiol ® Ultimate
  T_sol: 45.4 °C
[2]; [4]
  T_sol: 27.3 °C
[2]; [5]
  T_sol: 44.6 °C
[2]; 5 wt. % in Ethyl lactate
  T_sol: 26.5 °C
[2]; [6]
  T_sol: 21.1 °C
[2]; [7]
  T_sol: 19.8 °C
[2]; [8]
  T_sol: 17.8 °C
[2]; [9]
  T_sol: 24.0 °C
[2]; [10]
  T_sol: 16.3 °C
[2]; 5 wt. % in Hedione ®
  T_sol: 21.0 °C
[2]; [11]
  T_sol: 33.5 °C
[2]; 5 wt. % in Triacetine
  T_sol: 41.1 °C
[2]; 5 wt. % in Triethyl citrate
  T_sol: 36.2 °C
[2]; 5 wt. % in gamma-Decalactone
  T_sol: 14.6 °C
[2]; [12]
  T_sol: 10.5 °C
[2]; 5 wt. % in gamma-Undecalactone
  T_sol: 15.3 °C
[2]; 5 wt. % in gamma-Valerolactone
  T_sol: 23.0 °C
[2]; [13]
  T_sol: 15.3 °C
[3]; in gamma-Valerolactone/IPM (70:30 w/w)
  Solubility of 2-(dodecylsulfonyl)octan-4-one at 25° C.: 11.3 wt. %
[3]; in gamma-Valerolactone
  Solubility of 2-(dodecylsulfonyl)octan-4-one at 25° C.: 5.5 wt. %
